Assays:
physchem = settings: octanol/water
[1] = octanol/water

O=[N+]([O-])c1ccc(Cl)cc1
logP (physchem): 2.3 | Log k' w [1]: 2.165

Oc1cccc(C(F)(F)F)c1
Log k' w [1]: 2.847

COc1cccc(O)c1 [1-hydroxy-3-methoxybenzene]
Log k' w [1]: 1.254

Cc1ccc(O)cc1 [p-CRESOL]
Log k' w [1]: 1.759

CC(=O)Nc1ccc(Br)cc1
logP (physchem): 2.29 | Log k' w [1]: 2.293

COc1ccc(N)cc1
logP (physchem): 0.95 | Log k' w [1]: 0.603

Oc1cccc(Cl)c1
Log k' w [1]: 2.391

CCc1cccc(O)c1
logP (physchem): 2.4 | Log k' w [1]: 2.228

O=[N+]([O-])c1ccccc1 [NITROBENZENE]
Log k' w [1]: 1.633

c1ccc2[nH]ccc2c1 [INDOLE]
logP (physchem): 2.14 | Log k' w [1]: 2.014

COc1ccc(CO)cc1
logP (physchem): 1.1 | Log k' w [1]: 0.815

COc1ccc(O)cc1 [MEQUINOL]
Log k' w [1]: 1.004

Nc1cccc(F)c1
logP (physchem): 1.3 | Log k' w [1]: 1.225

Oc1cccc(F)c1
Log k' w [1]: 1.749

Oc1ccc(F)cc1
Log k' w [1]: 1.575

Oc1ccccc1 [PHENOL]
Log k' w [1]: 1.251

COc1ccc([N+](=O)[O-])cc1
Log k' w [1]: 1.857

Oc1ccc(I)cc1
Log k' w [1]: 2.795

CC12CCC(C(=O)C1=O)C2(C)C (centres undefined)
logP (physchem): 1.52 | Log k' w [1]: 1.42

N#Cc1ccccc1 [BENZONITRILE]
Log k' w [1]: 1.279

Cc1ccc(N)cc1
Log k' w [1]: 1.405

Oc1cccc(O)c1 [RESORCINOL]
Log k' w [1]: 0.544

N#Cc1cccc(O)c1
logP (physchem): 1.7 | Log k' w [1]: 1.557

c1ccc(/N=N/c2ccccc2)cc1 [AZOBENZENE]
logP (physchem): 3.82 | Log k' w [1]: 3.961

Nc1ccc(Cl)cc1 [4-CHLOROANILINE]
logP (physchem): 1.83 | Log k' w [1]: 1.855

N#Cc1cccc([N+](=O)[O-])c1
logP (physchem): 1.17 | Log k' w [1]: 1.014

Cc1ccc(C(C)C)c(O)c1 [THYMOL]
Log k' w [1]: 3.092

COc1ccccc1 [ANISOLE]
Log k' w [1]: 2.006

Nc1cccc2ccccc12
Log k' w [1]: 2.203

CC(=O)c1ccccc1 [ACETOPHENONE]
Log k' w [1]: 1.359

Nc1ccc(Br)cc1 [4-BROMOANILINE]
Log k' w [1]: 2.043

Oc1ccc(Cl)cc1 [PARACHLOROPHENOL]
Log k' w [1]: 2.31
